Test results as given in PMC12970513, “Unsaturated Phosphorus Electrophiles to Probe Protein Tyrosine Phosphatases” (Angewandte Chemie (International Ed. in English), 2026).
*1 amine or outer side, *2 acyl side, *3 side chain or, on linkers, in order; H or OH if unused. Where a SMILES comes first, the peptide text is derived from it. [ ]: non-standard residue; d: D form. The star is where a group is joined. X1 = C#CP(=O)(O)Oc1ccc(C[C@H](N[*:1])C(=O)[*:2])cc1; X2 = C#CP(=O)(O)Nc1ccc(C[C@H](N[*:1])C(=O)[*:2])cc1; Biotin = O=C1N[C@H]2[C@H](CS[C@H]2CCCCC(=O)*)N1

How the values were obtained:
[1] = Stability of bio-PN and bio-PO in HEK293T cell lysate by 31P NMR; format: in vitro ADME, human; conditions: HEK293T lysate (1 mg/mL), 1 mM peptide, room temperature
Procedure: Next, we assessed the stability of the phosphonamidic and phosphonic acid in aqueous buffers at pH 2, pH 3.5, pH 7.4, pH 8.5, and pH 11. Therefore, SM‐PN and SM‐PO were added in the corresponding buffers and monitored for 48 h at room temperature via ^31P‐NMR with triphenylphosphinoxide (TPPO) as an internal standard (Figure S2). […] Furthermore, we evaluated the stability of the peptide probes bio‐PN and bio‐PO in human lysate for subsequent experiments. These peptides were added in HEK293T cell lysate, and changes in stability were recorded for 18 h via ^31P‐NMR, in which inorganic phosphate served as an internal standard. […] Nonetheless, both peptides display sufficient stability for follow‐up studies.
A solution of 480 µL of HEK293T cell lysate (1 mg/mL) was supplemented with 60 µL of D2O. To this, 60 µL of bio-PN or bio-PO (10 mM stock in DMSO, final concentration 1 mM) were added right before the start of the measurement. The mixtures were transferred to NMR tubes and one-dimensional ^31P-NMR spectra were recorded for each sample at room temperature, in intervals of 2.5 h over the course of 18 h on a Bruker AV-III 600 spectrometer. For analysis, the spectra were Fourier-transformed, baseline corrected and the intensity of the ^31P-NMR signal was obtained by integration.

[2] = Lysate labeling by fluorescence gel scanning, HEK293T; design: species or system human; conditions: HEK293T lysate 2 mg/mL, 50 mM sodium succinate pH 6.0, 150 mM NaCl, 1 mM EDTA, 1 mM DTT, 1 h, R.T.
Procedure: Having identified suitable conditions, we aimed to compare our target‐specific peptide PO‐probe with a broad reactivity PTP probe in order to visualize the different reactivity patterns in human lysate. […] Using the previously reported buffer conditions, HEK293T cell lysate (50 mM sodium succinate, pH 6.0, 150 mM NaCl, 1 mM EDTA, 1 mM DTT) was incubated for 1 h with TMR‐BBP (100 µM).
For fluorescence gel scanning of TMR labeled probes samples resolved by SDS-PAGE and first visualized at a Bio-Rad imaging system equipped with a 532 nm laser for excitation. Afterwards, wherever applicable gels were stained with Coomassie brilliant blue.
For the comparison of the labeling pattern between TMR-PO and a general phosphatase probe (TMR-BBP) freshly lysed HEK293T cell lysate was adjusted to 2 mg/mL. […] For labeling with TMR-BBP cells were lysed in 50 mM sodium succinate buffer pH 6.0, 150 mM NaCl, 1 mM EDTA, and 1 mM DTT as previously reported.^[3] […] The reactions were incubated for 1 hour at room temperature and subsequently analyzed by fluorescence gel scanning.
A volume of 49 µL of each lysate was mixed with 1 µL of a 5 mM TMR-PO stock solution in DMSO and incubated for 1 hour at room temperature. Samples were resolved by SDS-PAGE and analyzed by fluorescence gel scanning.

C#CP(=O)(O)Nc1ccc(C[C@H](NC(=O)[C@H](CCC(=O)O)NC(=O)[C@H](CC(=O)O)NC(=O)[C@H](C)NC(=O)[C@H](CC(=O)O)NC(=O)CCCC[C@@H]2SC[C@@H]3NC(=O)N[C@@H]32)C(=O)N[C@@H](CC(C)C)C(=O)N[C@H](C(=O)N2CCC[C@H]2C(=O)N[C@@H](CCC(N)=O)C(=O)N[C@@H](CCC(N)=O)C(=O)NCC(N)=O)[C@@H](C)CC)cc1 [bio-PN] (Biotin-DADE[X2]LIPQQG-NH2)
remaining at 18 h, 1 mM ([1]; human, HEK293T cell lysate, inorganic phosphate internal standard, read-out: remaining intact in HEK293T cell lysate): 80% | metabolised at 18 h, 1 mM ([1]; human, HEK293T cell lysate, read-out: decay in HEK293T cell lysate): 20%

C#CP(=O)(O)Oc1ccc(C[C@H](NC(=O)[C@H](CCC(=O)O)NC(=O)[C@H](CC(=O)O)NC(=O)[C@H](C)NC(=O)[C@H](CC(=O)O)NC(=O)CCCC[C@@H]2SC[C@@H]3NC(=O)N[C@@H]32)C(=O)N[C@@H](CC(C)C)C(=O)N[C@H](C(=O)N2CCC[C@H]2C(=O)N[C@@H](CCC(N)=O)C(=O)N[C@@H](CCC(N)=O)C(=O)NCC(N)=O)[C@@H](C)CC)cc1 [bio-PO] (Biotin-DADE[X1]LIPQQG-NH2)
decay in HEK293T cell lysate ([1]; 18 h): remains intact | remaining intact in HEK293T cell lysate ([1]; 18 h, inorganic phosphate internal standard): stayed unaltered

α-bromo(4-((N-5/6-TAMRA-aminomethyl)phenyl)methyl)phosphonic acid [TMR-BBP]
labeling pattern in HEK293T lysate (TMR-BBP) [2]: labeled many proteins across the whole proteome
